Source: patent US12281079B2, “Quinoline derivatives, processes for their preparation and uses thereof for the treatment of cancer” (Lead Discovery Center GmbH, priority 2019, dated 2025)

Biological target: mitochondrial RNA polymerase (POLRMT) (Mus musculus, UniProt Q8BKF1)
Assay: Homogeneous TR-FRET assay for mitochondrial transcription activity
Format: biochemical
Details: homogeneous TR-FRET assay according to Example 4
Text: The TR-FRET assay was basically conducted as described in WO2016/193231A1, especially as described in example 1 (hereby incorporated by reference). With respect to the back ground of the mitochondrial transcription it is referred to Falkenberg et al. (2002) and Posse et al. (Posse et al., 2015). The method monitors the activity of mitochondrial RNA-polymerase via detection of the formation of its product, a 407 bp long RNA sequence. Detection of the product is facilitated by hybridization of two DNA-oligonucleotide probes to specific and adjacent sequences within the RNA product sequence. Upon annealing of the probes, two fluorophores that are coupled directly to an acceptor nucleotide probe (ATT0647, 5′) or introduced via a coupled streptavidin interacting with a biotinylated donor nucleotide probe on the other side (Europium cryptate, 3′) are brought into sufficient proximity to serve as a fluorescence-donor-acceptor pair as generally described in Walters and Namchuk (2003). Thus, a FRET signal at 665 nm is generated upon excitation at 340 nm.
Briefly, the protocol described here was applied for screening and activity determination in a low-volume 384-well microtiter plate with non-binding surface. For high-throughput application in the 1536-well microtiter plate format, volumes of the reagent mixes were adjusted, maintaining the volumetric ratio. Proteins POLRMT (NM_172551.3), TFAM (NM_009360.4) and TFB2M (NM_008249.4) were diluted from their stocks to working concentrations of 150 nM, 1.8 μM and 330 nM respectively, in a dilution buffer containing 100 mM Tris-HCl pH 8.0, 200 mM NaCl, 10% (v/v) glycerole, 2 mM glutathione (GSH), 0.5 mM EDTA and 0.1 mg/mL BSA. Protein dilutions and template DNA, comprising a pUC18 plasmid encoding the mitochondrial light strand promoter, restriction linearized proximal to the promoter 3′-end (pUC-LSP), were mixed at the twofold final assay-concentration in a reaction buffer, containing 10 mM Tris-HCl pH 7.5, 10 mM MgCl2, 40 mM NaCl, 2 mM GSH, 0.01% (w/v) Tween-20 and 0.1 mg/mL BSA.
5 μL of this mix were dispensed, depending on the chosen microtiter plate format, using multi-channel pipettes or a Multidrop® dispenser (Thermo Fisher Scientific, Waltham Mass.) into the wells of a microtiter plate and incubated at room temperature (rt) for 10 min. Chemical compounds under scrutiny in the assay were applied using contact-free acoustic droplet-dispensing (Echo520® Labcyte Inc., Sunnyvale Calif.) from 10 mM compound stocks in 100% DMSO, to a final concentration of 10 μM or in serial dilution series of the required concentration range. Equal amounts of DMSO without any compound were added to positive control samples, followed by an incubation step at rt for 10 min.
The enzymatic reaction was started by the addition of 5 μL of a mix of dNTPs in reaction buffer to a final concentration of 500 μM each. No nucleotide mix was added to negative control samples. The content of the wells was mixed using a VarioTeleshaker™ (Thermo Fisher Scientific, Waltham Mass.) at 1500 rpm for 45 sec after which the microtiter plate was centrifuged at 500×g for 1 min. The samples were incubated for 2 h at rt with humidity control to avoid evaporation. The detection reagents were prepared in a buffer that was composed, such that the enzymatic reaction was terminated due to chelating of Mg-ions and increased ionic strength, containing 50 mM Tris-HCl pH 7.5, 700 mM NaCl, 20 mM EDTA, and 0.01% (w/v) Tween-20. Importantly Eu-cryptate-coupled streptavidin had to be preincubated with a 100-fold molar excess of a random sequence oligonucleotide for 10 min at rt in the dark to block unspecific binding of single stranded RNA to the protein. Subsequently, the blocked streptavidin(-Eu) was mixed with the DNA-probes on ice and kept away from light until use. […]

Chain of mitochondrial RNA polymerase (POLRMT) (Q8BKF1 42-1207): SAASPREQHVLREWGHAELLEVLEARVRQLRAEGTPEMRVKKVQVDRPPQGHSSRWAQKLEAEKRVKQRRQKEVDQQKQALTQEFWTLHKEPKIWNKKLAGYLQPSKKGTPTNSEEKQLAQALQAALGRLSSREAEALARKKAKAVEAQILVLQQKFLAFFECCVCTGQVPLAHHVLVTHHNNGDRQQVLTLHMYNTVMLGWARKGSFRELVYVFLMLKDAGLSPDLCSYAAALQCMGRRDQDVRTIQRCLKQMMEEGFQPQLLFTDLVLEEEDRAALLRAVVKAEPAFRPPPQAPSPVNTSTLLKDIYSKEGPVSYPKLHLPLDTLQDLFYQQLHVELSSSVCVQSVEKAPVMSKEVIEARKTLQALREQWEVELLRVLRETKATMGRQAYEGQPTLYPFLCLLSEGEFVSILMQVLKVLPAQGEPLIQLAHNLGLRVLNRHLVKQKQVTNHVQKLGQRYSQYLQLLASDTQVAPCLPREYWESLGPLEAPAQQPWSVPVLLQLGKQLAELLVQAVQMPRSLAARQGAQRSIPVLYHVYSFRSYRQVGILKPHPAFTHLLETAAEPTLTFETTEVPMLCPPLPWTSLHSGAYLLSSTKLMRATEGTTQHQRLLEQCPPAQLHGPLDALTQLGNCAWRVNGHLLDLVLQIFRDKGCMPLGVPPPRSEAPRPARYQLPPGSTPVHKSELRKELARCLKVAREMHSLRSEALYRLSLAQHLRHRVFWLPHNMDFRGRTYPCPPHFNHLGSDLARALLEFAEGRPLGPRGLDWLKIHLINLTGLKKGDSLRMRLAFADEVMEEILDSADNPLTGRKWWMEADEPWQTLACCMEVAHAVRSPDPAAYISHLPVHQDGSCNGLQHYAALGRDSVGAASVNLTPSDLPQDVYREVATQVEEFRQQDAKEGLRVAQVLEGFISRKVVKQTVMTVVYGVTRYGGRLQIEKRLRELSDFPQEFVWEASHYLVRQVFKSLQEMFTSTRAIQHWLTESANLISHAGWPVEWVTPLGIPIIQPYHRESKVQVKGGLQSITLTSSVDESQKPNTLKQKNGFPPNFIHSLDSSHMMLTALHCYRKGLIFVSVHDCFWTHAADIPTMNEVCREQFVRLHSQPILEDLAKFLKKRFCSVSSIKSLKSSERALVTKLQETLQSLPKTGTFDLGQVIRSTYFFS

IC50 [nM] | SMILES
1000 to 10000 | COC(=O)C1CC(NC(=O)[C@@H](C)Oc2ccc3c(-c4ccccc4Cl)cc(Cl)nc3c2)C1 (stereo partly drawn) [Compound 97, methyl 3-[[(2R)-2-[[2-chloro-4-(2-chlorophenyl)-7-quinolyl]oxy]propanoyl]amino]cyclobutanecarboxylate]
1000 to 10000 | CNC(=O)C[C@H]1CCCN(C(=O)[C@@H](C)Oc2ccc3c(-c4ccc(F)cc4Cl)cc(Cl)nc3c2)C1 [Compound 98, 2-((R)-1-((R)-2-((2-chlor-4-(2-chloro-4-fluorophenyl)quinolin-7-yl)oxy)propanoyl)piperidin-3-yl)-N-methylacetamide]
1000 to 10000 | C[C@@H](Oc1ccc2c(-c3ccccc3Cl)cc(Cl)nc2c1)C(=O)N1CCC[C@H](C(=O)N(C)C)C1 [Compound 100, (3S)-1-[(2R)-2-[[2-chloro-4-(2-chlorophenyl)-7-quinolyl]oxy]propanoyl]-N,N-dimethyl-piperidine-3-carboxamide]
1000 to 10000 | C[C@H](Oc1ccc2c(-c3ccccc3Cl)ccnc2c1)C(=O)N1CCC[C@@H](C(=O)O)C1 [Compound 102, (3R)-1-[(2S)-2-[[4-(2-chlorophenyl)-7-quinolyl]oxy]propanoyl]piperidine-3-carboxylic acid]
1000 to 10000 | C[C@@H](Oc1ccc2c(-c3ccccc3Cl)ccnc2c1)C(=O)O [Compound 103, (2R)-2-[[4-(2-chlorophenyl)-7-quinolyl]oxy]propanoic acid]
1000 to 10000 | CNC(=O)[C@H]1CCCN(C(=O)[C@@H](C)Oc2ccc3c(-c4ccc(F)cc4Cl)cc(Cl)nc3c2)C1 [Compound 105, (3S)-N-methyl-1-[(2R)-2-[[2-chloro-4-(2-chloro-4-fluoro-phenyl)-7-quinolyl]oxy]propanoyl]piperidine-3-carboxamide]
1000 to 10000 | Cc1ccccc1-c1ccnc2cc(OCC(N)=O)ccc12 [Compound 106, 2-((4-(o-tolyl)quinolin-7-yl)oxy)acetamide]
1000 to 10000 | C[C@@H](Oc1ccc2c(-c3ccc(F)cc3Cl)cc(Cl)nc2c1)C(=O)N1CCCCC1 [Compound 107, (2R)-2-[[2-chloro-4-(2-chloro-4-fluoro-phenyl)-7-quinolyl]oxy]-1-(1-piperidyl)propan-1-one]
1000 to 10000 | CCOC(=O)c1cccc(NC(=O)[C@@H](C)Oc2ccc3c(-c4ccc(F)cc4Cl)ccnc3c2)c1 [Compound 108, ethyl 3-[[(2 R)-2-[[4-(2-chloro-4-fluoro-phenyl)-7-quinolyl]oxy]propanoyl]amino]benzoate]
1000 to 10000 | C[C@@H](Oc1ccc2c(-c3ccccc3F)ccnc2c1)C(=O)N1CCC[C@H](CC(=O)O)C1 [Compound 110, 2-[(3R)-1-[(2R)-2-[[4-(2-fluorophenyl)-7-quinolyl]oxy]propanoyl]-3-piperidyl]acetic acid]
1000 to 10000 | Cc1cc(-c2ccccc2C)c2ccc(O[C@H](C)C(=O)N3CCC[C@H](C(=O)OC(C)(C)C)C3)cc2n1 [Compound 111]
1000 to 10000 | CC(C)c1ccccc1-c1ccnc2cc(O[C@H](C)C(=O)N3CCC[C@H](CC(=O)O)C3)ccc12 [Compound 122, 2-[(3R)-1-[(2R)-2-[[4-(2-isopropylphenyl)-7-quinolyl]oxy]propanoyl]-3-piperidyl]acetic acid]
1000 to 10000 | C[C@@H](Oc1ccc2c(-c3ccc(F)cc3Cl)ccnc2c1)C(=O)Nc1ccc(CCO)cc1 [Compound 125, (2R)-2-[[4-(2-chloro-4-fluoro-phenyl)-7-quinolyl]oxy]-N-[4-(2-hydroxyethyl)phenyl]propanamide]
1000 to 10000 | C[C@H](Oc1ccc2c(-c3ccc(F)cc3Cl)ccnc2n1)C(=O)N1CCC[C@H](C(=O)O)C1 [Compound 127, (3S)-1-[(2S)-2-[[5-(2-chloro-4-fluoro-phenyl)-1,8-naphthyridin-2-yl]oxy]propanoyl]piperidine-3-carboxylic acid]
1000 to 10000 | Cc1ccsc1-c1ccnc2cc(O[C@H](C)C(=O)N3CCC[C@H](CC(=O)O)C3)ccc12 [Compound 134, 2-[(3R)-1-[(2R)-2-[[4-(3-methyl-2-thienyl)-7-quinolyl]oxy]propanoyl]-3-piperidyl]acetic acid]
1000 to 10000 | COc1ccccc1-c1ccnc2cc(O[C@H](C)C(=O)N3CCC[C@H](CC(=O)O)C3)ccc12 [Compound 135, 2-[(3R)-1-[(2R)-2-[[4-(2-methoxyphenyl)-7-quinolyl]oxy]propanoyl]-3-piperidyl]acetic acid]
100 to 1000 | C[C@@H](Oc1ccc2c(-c3ccccc3C(F)(F)F)ccnc2c1)C(=O)N1CCC[C@H](CC(=O)O)C1 [Compound 136, 2-[(3R)-1-[(2R)-2-[[4-[2-(trifluoromethyl)phenyl]-7-quinolyl]oxy]propanoyl]-3-piperidyl]acetic acid]
1000 to 10000 | C[C@@H](Oc1ccc2c(-c3ccccc3OC(F)(F)F)ccnc2c1)C(=O)N1CCC[C@H](CC(=O)O)C1 [Compound 137, 2-[(3R)-1-[(2R)-2-[[4-[2-(trifluoromethoxy)phenyl]-7-quinolyl]oxy]propanoyl]-3-piperidyl]acetic acid]
< 20 | Cc1cccc(C)c1-c1ccnc2cc(O[C@H](C)C(=O)N3CCC[C@H](S(N)(=O)=O)C3)ccc12 [Compound 138, (3S)-1-[(2R)-2-[[4-(2,6-dimethylphenyl)-7-quinolyl]oxy]propanoyl]piperidine-3-sulfonamide]
1000 to 10000 | CC(C)(Oc1ccc2c(-c3ccccc3Cl)ccnc2c1)C(=O)N1CCC[C@H](CC(=O)O)C1 [Compound 139, 2-[(3R)-1-[2-[[4-(2-chlorophenyl)-7-quinolyl]oxy]-2-methyl-propanoyl]-3-piperidyl]acetic acid]
< 20 | Cc1cccc(Cl)c1-c1ccnc2cc(O[C@H](C)C(=O)N3CCC[C@H](CC(=O)O)C3)ccc12 [Compound 141, 2-[(3R)-1-[(2R)-2-[[4-(2-chloro-6-methyl-phenyl)-7-quinolyl]oxy]propanoyl]-3-piperidyl]acetic acid]
< 20 | C[C@@H](Oc1ccc2c(-c3ccccc3Br)ccnc2c1)C(=O)N1CCC[C@H](CC(=O)O)C1 [Compound 142, 2-[(3R)-1-[(2R)-2-[[4-(2-bromophenyl)-7-quinolyl]oxy]propanoyl]-3-piperidyl]acetic acid]
100 to 1000 | C[C@@H](Oc1ccc2c(-c3ccccc3C#N)ccnc2c1)C(=O)N1CCC[C@H](CC(=O)O)C1 [Compound 143, 2-[(3R)-1-[(2R)-2-[[4-(2-cyanophenyl)-7-quinolyl]oxy]propanoyl]-3-piperidyl]acetic acid]
20 to 100 | C#Cc1ccccc1-c1ccnc2cc(O[C@H](C)C(=O)N3CCC[C@H](CC(=O)O)C3)ccc12 [Compound 144, 2-[(3R)-1-[(2R)-2-[[4-(2-ethynylphenyl)-7-quinolyl]oxy]propanoyl]-3-piperidyl]acetic acid]
100 to 1000 | C[C@@H](Oc1ccc2c(-c3ccccc3N(C)C)ccnc2c1)C(=O)N1CCC[C@H](CC(=O)O)C1 [Compound 145, 2-[(3R)-1-[(2R)-2-[[4-[2-(dimethylamino)phenyl]-7-quinolyl]oxy]propanoyl]-3-piperidyl]acetic acid]
1000 to 10000 | C[C@@H](Oc1ccc2c(-c3c(C(F)(F)F)cccc3C(F)(F)F)ccnc2c1)C(=O)N1CCC[C@H](CC(=O)O)C1 [Compound 151, 2-[(3R)-1-[(2R)-2-[[4-[2,6-bis(trifluoromethyl)phenyl]-7-quinolyl]oxy]propanoyl]-3-piperidyl]acetic acid]
1000 to 10000 | COc1cccc(Cl)c1-c1ccnc2cc(O[C@H](C)C(=O)N3CCC[C@H](CC(=O)O)C3)ccc12 [Compound 152, 2-[(3R)-1-[(2R)-2-[[4-(2-chloro-6-methoxy-phenyl)-7-quinolyl]oxy]propanoyl]-3-piperidyl]acetic acid]
